Here are results for 20 molecules from article PMC8002023, “3D Pharmacophore-Based Discovery of Novel KV10.1 Inhibitors with Antiproliferative Activity” (Cancers, 2021).

Series [1] has as its target T1, KV10.1 (Homo sapiens, UniProt O95259).
T1 construct: expressed in transfected cells
T1 sequence (O95259 1-962 isoform O95259-2): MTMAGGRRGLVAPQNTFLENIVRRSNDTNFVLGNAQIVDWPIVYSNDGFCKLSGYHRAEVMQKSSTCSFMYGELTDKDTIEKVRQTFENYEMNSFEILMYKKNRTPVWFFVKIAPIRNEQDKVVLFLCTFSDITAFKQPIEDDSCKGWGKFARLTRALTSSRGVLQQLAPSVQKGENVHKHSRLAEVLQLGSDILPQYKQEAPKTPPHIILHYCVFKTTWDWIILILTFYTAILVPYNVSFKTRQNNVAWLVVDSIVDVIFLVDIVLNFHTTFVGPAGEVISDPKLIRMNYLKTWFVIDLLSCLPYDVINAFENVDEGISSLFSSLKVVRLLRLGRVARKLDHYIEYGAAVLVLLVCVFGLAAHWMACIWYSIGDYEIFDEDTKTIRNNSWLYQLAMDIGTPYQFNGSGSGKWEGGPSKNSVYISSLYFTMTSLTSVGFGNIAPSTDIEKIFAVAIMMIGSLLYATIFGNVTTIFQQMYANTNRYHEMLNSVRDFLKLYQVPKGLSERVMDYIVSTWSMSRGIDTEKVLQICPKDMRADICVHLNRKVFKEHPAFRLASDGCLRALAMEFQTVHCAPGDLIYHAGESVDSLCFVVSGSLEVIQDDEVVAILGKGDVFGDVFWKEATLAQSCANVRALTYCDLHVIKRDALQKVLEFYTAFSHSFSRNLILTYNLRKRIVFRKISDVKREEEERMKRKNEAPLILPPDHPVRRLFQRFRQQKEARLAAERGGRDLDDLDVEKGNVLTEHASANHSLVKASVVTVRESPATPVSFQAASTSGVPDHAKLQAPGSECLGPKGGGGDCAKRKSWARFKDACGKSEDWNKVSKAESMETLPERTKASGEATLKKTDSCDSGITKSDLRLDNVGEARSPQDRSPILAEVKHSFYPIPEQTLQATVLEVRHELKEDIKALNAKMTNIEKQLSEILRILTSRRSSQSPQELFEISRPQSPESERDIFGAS
The series is described as follows: Whole-cell patch clamp on HEK-293 cells stably expressing KV10.1. The class given is cell-based. The conditions noted are these: for inhibition at 10 µM: HEK293, mean ± standard error (or range); for KV10.1 inhibitory activity: SAR discussion of Table 3 (10 μM). A general note: The patch-clamp technique gives a direct electrical read-out from membranes.

Series [2] has as its target T1, KV10.1. The description is as above. The class given is cell-based. The settings on record: for inhibition at 50 µM: HEK293, compound concentration 50 μM, stimuli to +40 mV, mean ± standard error, read-out: Effect on Kv10.1 (% Inhibition). As for the experimental part: (§1) Whole-cell patch clamp experiments were performed on stably transfected HEK-293 cells. The cells were grown on fibronectin-coated glass coverslips in DMEM supplemented with 10% FCS and 300 µg/mL Zeocin. Experiments were performed at room temperature under continuous perfusion. The extracellular solution contained (mM) 160 NaCl, 2.5 KCl, 2 CaCl2, 1 MgCl2, 10 Hepes/NaOH, pH 7.4, 8 glucose. For the experiments determining conductance–voltage relationships, tail currents were made visible by substituting 60 mM NaCl by KCl ([…], 100 NaCl). Pipettes were pulled from #1 glass capillaries (WPI) to resistances of 1–3 MΩ when loaded with the intracellular solution (100 KCl, 45 N-methyl-D-glucamine, 10 1,2-bis(o-aminophenoxy)ethane-N,N,N′,N′-tetraacetic acid (BAPTA), 10 Hepes pH 7.35). Data acquisition was performed using a EPC10 Plus amplifier (HEKA Elektronik) and Patch Master software. Drug application was performed using an 8-channel fast solution exchanger (ALA). All compounds were dissolved in DMSO to a final concentration of 10 mM. 0.5% DMSO in extracellular solution served as control. KV10.1 currents were elicited by 500 ms depolarisations to +40 mV under continuous perfusion with the compound-containing or control solution. hERG current amplitudes were measured as the peak tail current during a 4 s repolarization to −40 mV after a depolarising pulse to +20 mV lasting for 2 s.
The nine selected in silico hits were tested by manual patch-clamp on a HEK293 cell line stably expressing KV10.1 [33] at a compound concentration of 50 μM (Table 1). Compound activity was tested by determining the current amplitude elicited by repetitive stimuli to +40 mV from a holding potential of −80 mV. […] The hit compound ZVS-08 represents a new structural class of KV10.1 inhibitors with diarylamine structure and has a unique structure among the acquired virtual screening hits. […] The most notable change from the purpurealidin analogues is the replacement of the hydrogen bond acceptor group of the amide bond with the oxygen atom of the nitro group of ZVS-08.

In series [3] the target is T1, KV10.1. More on the design: method as in PMID 15365094. The settings on record: open-channel blocker; cited from earlier work.
The next series deals with T2, hERG (Homo sapiens, UniProt Q12809).
T2 construct: expressed in transfected cells
Description: Whole-cell patch clamp on stably transfected HEK-293 cells, hERG tail current. The settings on record: peak tail current at −40 mV after +20 mV. In kind it is cell-based. How it is done:
as §1

For a further series, the system named is Panc1 cells. Description: Cell growth in 2D culture (Incucyte confluence, 72 h), Panc1. The class given is cell-based. The settings on record: Homo sapiens, PANC-1, no KV10.1 and high hERG expression. As for the experimental part:
(§2) Cell lines MCF-7 (DSMZ ACC 115), PANC-1 (DSMZ ACC 783), and hTERT-RPE1 (ATCC CRL 4000) were grown in the media recommended by the cell provider in a humidified atmosphere at 5% CO2 and 37 °C. For cell growth experiments, 10^4 cells/well were seeded in 96-well flat bottom culture plates (Corning) and allowed to grow for 24 h. The compounds were then added in the corresponding growth medium, and the plate was imaged every hour for 72 h (two images per well and eight wells per condition in two independent experiments for compound 8 and five for ZVS-08 and compound 1) in an Incucyte system (Sartorius/Essen biosciences). Culture confluence was determined in the phase contrast images and is expressed as percent confluence per well. The growth was then normalised to the value in the absence of compounds.
KV10.1 inhibitors with a favourable pharmacological profile are promising candidates for cancer therapy. […] Different concentrations of the compounds were added to the culture medium and the growth of the cell was monitored over 72 h (Figure 14).
In general terms: The hERG channel carries a current that helps repolarise heart muscle cells.

Another series has as its system MCF-7 cells. The series is described as follows: Cell growth in 2D culture (Incucyte confluence, 72 h), MCF-7. The conditions noted are these: high KV10.1 and low hERG expression. The class given is cell-based. How it is done: as §2
KV10.1 inhibitors with a favourable pharmacological profile are promising candidates for cancer therapy. To investigate the activity of the new compounds on cancer cells proliferation, compounds ZVS-08, 1 and 8 were tested on MCF-7, a breast cancer cell line showing high KV10.1 expression and low hERG expression, and on Panc1, a pancreatic cancer cell line with undetectable KV10.1 expression and high level of hERG expression. hTERT-RPE1 cells served as a non-cancer cell line. hTERT-RPE1 cells show transient physiological expression of Kv10.1 that begins during the G2 phase of the cell cycle and extends through mitosis as present in normal cells. Different concentrations of the compounds were added to the culture medium and the growth of the cell was monitored over 72 h (Figure 14).

For the next series, the system named is Colo357 tumour spheroids. Description: Apoptosis (caspase 3/7 reporter) in tumour spheroids. The class given is cell-based. The settings on record: 50 µM, caspase reporter fluorescence over 72 h, 8.9 µM cycloheximide as sensitizer. How it is done:
Spheroids were cultured in round bottom ultra-low attachment 96-well plates (Corning) at a density of 5000 cells/well in 2% Matrigel (Corning) and centrifuged at 1000× g for 10 min. Spheroid formation was monitored continuously in the Incucyte system and treatments were added once spheroids were formed. As apoptosis sensitizer, 8.9 µM cycloheximide was added to controls and treated spheroids. Caspase 3/7 green reagent (Sartorius; 1:1000) was used as recommended by the manufacturer. Caspase 3/7 reagent substrate crosses the cell membrane and its cleavage by activated caspase-3/7 results in the release of a DNA dye and fluorescent staining of nuclear DNA.
To test the ability of the compounds to inhibit tumour progression in a more predictive system, we performed experiments on tumour spheroids of the pancreatic cancer cell line Colo357, which grows efficiently in this culture modality. The cells were seeded in the presence of Matrigel (see methods), allowed to form spheroids, and the compounds (50 µM) were added to the growth medium. The control contained the same amount of the vehicle (0.5% DMSO). Apoptosis was monitored by addition of a fluorescent […] activity reporter at the same time as the compounds. Cleavage of the reporter by caspase results in green florescence, and the intensity of the fluorescence was recorded over 72 h.

Read-outs that look alike come from different tables or passages of the source. Where only a bound is given, the exact number is not on record here.

T2 sequence (Q12809 whole entry): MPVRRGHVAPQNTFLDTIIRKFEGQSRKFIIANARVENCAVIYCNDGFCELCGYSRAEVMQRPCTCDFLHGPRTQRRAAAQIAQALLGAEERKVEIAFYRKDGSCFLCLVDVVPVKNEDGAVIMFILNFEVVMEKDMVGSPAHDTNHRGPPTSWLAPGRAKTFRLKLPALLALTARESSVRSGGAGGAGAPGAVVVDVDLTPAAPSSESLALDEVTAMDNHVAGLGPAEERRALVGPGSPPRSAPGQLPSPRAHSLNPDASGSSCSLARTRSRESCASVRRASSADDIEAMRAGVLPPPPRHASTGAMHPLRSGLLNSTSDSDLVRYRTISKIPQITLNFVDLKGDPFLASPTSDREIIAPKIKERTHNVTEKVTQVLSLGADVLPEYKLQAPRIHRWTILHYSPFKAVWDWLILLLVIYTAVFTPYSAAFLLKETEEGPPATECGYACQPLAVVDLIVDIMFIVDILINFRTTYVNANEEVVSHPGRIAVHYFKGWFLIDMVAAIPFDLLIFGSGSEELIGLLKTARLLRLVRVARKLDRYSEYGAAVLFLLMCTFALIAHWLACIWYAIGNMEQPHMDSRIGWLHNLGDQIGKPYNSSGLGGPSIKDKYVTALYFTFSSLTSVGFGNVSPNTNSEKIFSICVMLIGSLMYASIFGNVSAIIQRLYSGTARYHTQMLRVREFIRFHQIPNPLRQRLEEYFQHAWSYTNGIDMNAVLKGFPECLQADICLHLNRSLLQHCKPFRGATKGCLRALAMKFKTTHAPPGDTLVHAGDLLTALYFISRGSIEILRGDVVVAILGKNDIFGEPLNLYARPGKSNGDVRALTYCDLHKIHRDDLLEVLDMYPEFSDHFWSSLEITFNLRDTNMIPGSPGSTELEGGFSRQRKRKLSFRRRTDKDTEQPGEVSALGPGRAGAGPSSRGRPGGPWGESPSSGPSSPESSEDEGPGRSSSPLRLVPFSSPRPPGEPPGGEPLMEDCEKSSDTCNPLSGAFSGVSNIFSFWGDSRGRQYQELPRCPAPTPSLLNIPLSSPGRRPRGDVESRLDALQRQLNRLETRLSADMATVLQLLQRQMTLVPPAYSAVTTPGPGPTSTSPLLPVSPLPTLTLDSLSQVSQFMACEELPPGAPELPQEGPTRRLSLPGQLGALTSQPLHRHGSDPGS

Usually inhibition stands for the relative decrease from the control value, in per cent. Regarding `CC(=O)NCC(O)COc1ccc(Nc2ccc(C(F)(F)F)cc2[N+](=O)[O-])cc1` (stereo not drawn) [Compound 12], the inhibition at 10 µM at KV10.1 [1] worked out at 16.6 ± 38.4%.
On to `CN1CCOC(c2nccc(CNC(=O)Cc3cccs3)n2)C1` (stereo not drawn) [ZVS-03], for which the inhibition at 50 µM on KV10.1 [2] is -1.14 ± 3.47%.
Same read-out and setting: for `COc1ccc(F)cc1C(=O)NCc1cnc(C2CCN(C)C2)[nH]1` (stereo not drawn) [ZVS-07] the value was 4.68 ± 1.63%.
On the same count and under the same terms, for `O=C(CCN1CCOCC1)Nc1ccc(S(=O)(=O)Nc2cc(Cl)cc(Cl)c2)cc1` [ZVS-04] the value was -0.86 ± 0.75%.
What is called melting point is the temperature of the solid-liquid transition. Turning to `O=[N+]([O-])c1ccccc1Nc1ccc(OCC(O)CN2CCOCC2)cc1` (stereo not drawn) [Compound 2], the melting point was in the range of 95.6 to 97.5 °C. Besides, the inhibition at 10 µM on KV10.1 [1] was 23.9 ± 26.8%.
For the molecule `CN(C)CC(O)COc1ccc(Nc2ccc(C(F)(F)F)cc2N)cc1` (stereo not drawn) [Compound 10], the inhibition at 10 µM on KV10.1 [1] was 57 ± 21.7%.
Consider `CN(C)Cc1cncc(C2CCCN2C(=O)c2ccc3c(c2)CCC3)n1` (stereo not drawn) [ZVS-09], for which, on KV10.1 [2], the inhibition at 50 µM is 0.15 ± 1.67%.
`CN1CCN(c2cc(CNC(=O)Cc3noc4ccccc34)ccn2)CC1` [ZVS-05]: the inhibition at 50 µM at KV10.1 [2] came out at 8.84 ± 4.92%.
With `CN(C)CC(O)COc1ccc(Nc2ccccc2)cc1` (stereo not drawn) [Compound 3], the melting point was 88 to 90.1 °C. On KV10.1 [1], the inhibition at 10 µM came to 22.1 ± 33.5% and the “KV10.1 inhibitory activity” value was “almost inactive”.
As to `CN1CCN(c2cc(CNC(=O)c3cc(=O)[nH]c4ccccc34)ccn2)CC1` [ZVS-06], on KV10.1 [2], the inhibition at 50 µM was -7.5 ± 4.65%.
Regarding `COC(=O)c1ccccc1Nc1ccc(OCC(O)CN(C)C)cc1` (stereo not drawn) [Compound 9], at KV10.1 [1], the inhibition at 10 µM was determined as 2 ± 7.45% and the “KV10.1 inhibitory activity” value is “inactive”.
Regarding `CN(C)CCCOc1ccc(Nc2ccccc2[N+](=O)[O-])cc1` [Compound 4], the inhibition at 10 µM at KV10.1 [1] was 36.6 ± 19.9%.
In the case of `O=[N+]([O-])c1cc(C(F)(F)F)ccc1Nc1ccc(OCC(O)CNc2ccccc2)cc1` (stereo not drawn) [Compound 5], the inhibition at 10 µM against KV10.1 [1] was determined as 2.53 ± 11.7%.
As for `CN1CCN(S(=O)(=O)c2ccc(CNC(=O)c3ccccc3)s2)CC1` [ZVS-02], the inhibition at 50 µM at KV10.1 [2] was determined as 5.03 ± 2.87%.
On to `CN(C)CC(O)COc1ccc(Nc2ccccc2C(=O)O)cc1` (stereo not drawn) [Compound 11], for which, on KV10.1 [1], the inhibition at 10 µM stood at 37.7 ± 7.13% and the “KV10.1 inhibitory activity” value is “inactive”.
For orientation: IC50 means the concentration at which inhibition is half-maximal. Take `COc1ccc(CCN2CCC(Nc3nc4ccccc4n3Cc3ccc(F)cc3)CC2)cc1` [astemizole]: on KV10.1 [3], the IC50 was around 200 nM.
In turn, `CN(C)CC(O)COc1ccc(Nc2ccccc2[N+](=O)[O-])cc1` (stereo not drawn) [Compound 7] had a melting point of 76.1 to 77.3 °C. For the same molecule, the inhibition at 10 µM at KV10.1 [1] is 21 ± 30.3%.
For the molecule `CN(C)CCCOc1ccc(Nc2ccc(C(F)(F)F)cc2[N+](=O)[O-])cc1` [Compound 1], the IC50 at KV10.1 [2] (HEK-293, 500 ms depolarisation to +40 mV, read-out: IC50 Kv10.1) is 740 nM; against hERG it was 207 nM; with Panc1 cells it was above 30000 nM; with MCF-7 cells (Homo sapiens, MCF7, 72 h), 5480 nM; with MCF-7 cells, around 5000 nM. Further, the inhibition at 10 µM on KV10.1 [1] is 87.3 ± 4.6%. Moreover, the “apoptosis induction in tumour spheroids” value in the series on Colo357 tumour spheroids is given as “required longer time, but reached similar efficacy”.
Consider `CN(C)CC(O)COc1ccc(Nc2ccc(C(F)(F)F)cc2)cc1` (stereo not drawn) [Compound 6], for which the melting point lay within 76.3 to 79.1 °C. Besides, on KV10.1 [1], the inhibition at 10 µM turned out to be 57.5 ± 28.4%.
For the molecule `Cc1cccnc1C(=O)NCc1cnc(CCC2CCN(C)CC2)cn1` [ZVS-01], the inhibition at 50 µM at KV10.1 [2] was -1.13 ± 4.5%.
